One may read the chromatographic logP as a lipophilicity value derived from retention on a column. Read a high chromatographic logP as higher lipophilicity. In general, melting point refers to the temperature, or range, at which the solid turns liquid.

The structures appear in SMILES notation.

The nature of data set [1]: octanol/water partition coefficient (log P) by high-performance liquid chromatography, JIS Z 7260-117 (2006).
Source text: (§1) In the present invention (including examples and the like described later), the octanol/water partition coefficient (log P) described above can be measured by a high-performance liquid chromatography according to JIS Z 7260-117 (2006), and it is defined by the following equation:
(§2) log P=log(^┌Co┘/^┌Cw┘) • Co: concentration of an examined substance in a 1-octanol layer • Cw: concentration of an examined substance in an aqueous layer
(§3) The octanol/water partition coefficients (log P) of the vulcanization accelerators obtained in the following respective production examples were measured by a high-performance liquid chromatography according to JIS Z 7260-117 (2006). A high-performance liquid chromatography manufactured by Shimadzu Corporation was used.

Source text for physchem: as §1, §2, §3

In turn, `CCN(Sc1nc2ccccc2s1)C(C)(C)C` [N-ethyl-N-t-butylbenzothiazole-2-sulfenamide] showed a melting point of 60 to 61 °C. Also, in data set [1], the chromatographic logP was 4.9.
In data set [1], `CCCN(Sc1nc2ccccc2s1)C(C)(C)C` [N-n-propyl-N-t-butylbenzothiazole-2-sulfenamide] displayed a chromatographic logP of 5.3.
Compound `CN(Sc1nc2ccccc2s1)C(C)(C)C` [N-methyl-N-t-butylbenzothiazole-2-sulfenamide] returned a melting point of 56 to 58 °C. Also, the chromatographic logP in data set [1] came out at 4.5.
`CC(C)N(Sc1nc2ccccc2s1)C(C)(C)C` [N-i-propyl-N-t-butylbenzothiazole-2-sulfenamide] came in with a chromatographic logP in the data set “physchem” of 5.1.
`CCCCN(Sc1nc2ccccc2s1)C(C)(C)C` [N-n-butyl-N-t-butylbenzothiazole-2-sulfenamide] had a melting point of 55 to 56 °C. Further, the chromatographic logP in data set [1] turned out to be 5.8.
